Results published in patent US20250152574A1 (BIOGEN MA INC., priority 2022, published 2025).

Target: T1, EBP (Homo sapiens, UniProt Q15125)
T1 construct: HEK293T cells were utilized as the source of EBP enzyme; endogenous in cells; host or cells: HEK293T
Assay: EBP Functional Assay (EBP immunoaffinity LC-MS assay)
Format: biochemical
Conditions: HEK293T cells as source of EBP enzyme; substrate zymosterol-d5, 37° C. for 4 h; percent conversion to dehydrolathosterol-d5 by LC-APCI MRM MS
Outline: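 HEK293T cells served as EBP source; enzyme preincubated 30 min with inhibitor dilutions, then zymosterol-d5 substrate added and incubated 4 h at 37° C. Sterols extracted and quantified by LC-APCI MRM MS; percent conversion to […] fit to 4-parameter logistic for IC50. Tasin-1 reference inhibitor.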

T1 sequence (Q15125 whole entry): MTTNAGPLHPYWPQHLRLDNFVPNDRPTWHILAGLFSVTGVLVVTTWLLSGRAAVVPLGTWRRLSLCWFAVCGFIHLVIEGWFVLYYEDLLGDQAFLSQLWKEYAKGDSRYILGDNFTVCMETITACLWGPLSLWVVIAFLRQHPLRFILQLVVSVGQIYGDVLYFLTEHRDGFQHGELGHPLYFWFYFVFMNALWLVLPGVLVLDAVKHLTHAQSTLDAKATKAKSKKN

| SMILES | IC50 [µM] |
| --- | --- |
| CC(C)Oc1ccc(S(=O)(=O)N2CCC3(CCC(N4CC5(COC5)C4)C3)CC2)cn1 (centres unmarked) [Example 130, 6-(8-((6-isopropoxypyridin-3-yl)sulfonyl)-8-azaspiro[4.5]decan-2-yl)-2-oxa-6-azaspiro[3.3]heptane] | 0.1 to 0.25 |
| O=S(=O)(c1cccc2ccnn12)N1CCC2(CCC(N3CC4(COC4)C3)C2)CC1 (centres unmarked) [Example 131, 6-(8-(pyrazolo[1,5-a]pyridin-7-ylsulfonyl)-8-azaspiro[4.5]decan-2-yl)-2-oxa-6-azaspiro[3.3]heptane] | 0.1 to 0.25 |
| Cc1nc(C(F)(F)F)ccc1S(=O)(=O)N1CCC2(CC1)CC(NC1CC3(COC3)C1)CO2 (centres unmarked) [Example 137, 8-((2-methyl-6-(trifluoromethyl)pyridin-3-yl)sulfonyl)-N-(2-oxaspiro[3.3]heptan-6-yl)-1-oxa-8-azaspiro[4.5]decan-3-amine] | 0.25 to 1.5 |
| Cc1nc(C(F)(F)F)ccc1S(=O)(=O)N1CCC2(CC1)CC(NC1CCOCC1)CO2 (centres unmarked) [Example 138, 8-((2-methyl-6-(trifluoromethyl)pyridin-3-yl)sulfonyl)-N-(tetrahydro-2H-pyran-4-yl)-1-oxa-8-azaspiro[4.5]decan-3-amine] | 0.25 to 1.5 |
| Cn1nc(C(F)(F)F)cc1S(=O)(=O)N1CCC2(CC1)CC(NC1CC3(COC3)C1)CO2 (centres unmarked) [Example 139, 8-((1-methyl-3-(trifluoromethyl)-1H-pyrazol-5-yl)sulfonyl)-N-(2-oxaspiro[3.3]heptan-6-yl)-1-oxa-8-azaspiro[4.5]decan-3-amine] | 0.1 to 0.25 |
| Cc1nc(C(F)(F)F)ncc1S(=O)(=O)N1CCC2(CC1)CC(N(C)C1CC3(COC3)C1)CO2 (centres unmarked) [Example 140, N-methyl-8-((4-methyl-2-(trifluoromethyl)pyrimidin-5-yl)sulfonyl)-N-(2-oxaspiro[3.3]heptan-6-yl)-1-oxa-8-azaspiro[4.5]decan-3-amine] | < 0.1 |
| O=S(=O)(c1ccc2cccnc2c1)N1CCC2(CCC(N3CC4(COC4)C3)C2)CC1 (centres unmarked) [Example 144, 6-(8-(quinolin-7-ylsulfonyl)-8-azaspiro[4.5]decan-2-yl)-2-oxa-6-azaspiro[3.3]heptane] | 0.1 to 0.25 |

More lines, now with the values ahead:

| IC50 [µM] | SMILES |
| --- | --- |
| 0.25 to 1.5 | N#Cc1cc(S(=O)(=O)N2CCC3(CCC(N4CC5(COC5)C4)C3)CC2)ccc1F (centres unmarked) [Example 127, 5-((2-(2-oxa-6-azaspiro[3.3]heptan-6-yl)-8-azaspiro[4.5]decan-8-yl)sulfonyl)-2-fluorobenzonitrile] |
| < 0.1 | Cc1ccc(S(=O)(=O)N2CCC3(CCC(N4CC5(COC5)C4)C3)CC2)cc1C#N (centres unmarked) [Example 128, 5-((2-(2-oxa-6-azaspiro[3.3]heptan-6-yl)-8-azaspiro[4.5]decan-8-yl)sulfonyl)-2-methylbenzonitrile] |
| < 0.1 | COc1ccc(S(=O)(=O)N2CCC3(CCC(N4CC5(COC5)C4)C3)CC2)c(F)c1 (centres unmarked) [Example 129, 6-(8-((2-fluoro-4-methoxyphenyl)sulfonyl)-8-azaspiro[4.5]decan-2-yl)-2-oxa-6-azaspiro[3.3]heptane] |
| < 0.1 | O=S(=O)(c1cnc2cccc(F)c2c1)N1CCC2(CCC(N3CC4(COC4)C3)C2)CC1 (centres unmarked) [Example 132, 6-(8-((5-fluoroquinolin-3-yl)sulfonyl)-8-azaspiro[4.5]decan-2-yl)-2-oxa-6-azaspiro[3.3]heptane] |
| 0.1 to 0.25 | O=S(=O)(c1ccc2ncc(F)cc2c1)N1CCC2(CCC(N3CC4(COC4)C3)C2)CC1 (centres unmarked) [Example 133, 6-(8-((3-fluoroquinolin-6-yl)sulfonyl)-8-azaspiro[4.5]decan-2-yl)-2-oxa-6-azaspiro[3.3]heptane] |
| 0.25 to 1.5 | O=S(=O)(c1ccc(OC2CC2)cc1)N1CCC2(CCC(N3CC4(COC4)C3)C2)CC1 (centres unmarked) [Example 134, 6-(8-((4-cyclopropoxyphenyl)sulfonyl)-8-azaspiro[4.5]decan-2-yl)-2-oxa-6-azaspiro[3.3]heptane] |
| 0.1 to 0.25 | O=S(=O)(c1ccc2ccoc2c1)N1CCC2(CCC(N3CC4(COC4)C3)C2)CC1 (centres unmarked) [Example 135, 6-(8-(benzofuran-6-ylsulfonyl)-8-azaspiro[4.5]decan-2-yl)-2-oxa-6-azaspiro[3.3]heptane] |
| 0.1 to 0.25 | COc1ccc(S(=O)(=O)N2CCC3(CC2)CC(N(C)C2CC4(COC4)C2)CO3)c(F)c1 (centres unmarked) [Example 136, 8-((2-fluoro-4-methoxyphenyl)sulfonyl)-N-methyl-N-(2-oxaspiro[3.3]heptan-6-yl)-1-oxa-8-azaspiro[4.5]decan-3-amine] |
| 0.1 to 0.25 | Cc1cc(S(=O)(=O)N2CCC3(CCC(N4CC5(COC5)C4)C3)CC2)n(C)n1 (centres unmarked) [Example 142, 6-(8-((1,3-dimethyl-1H-pyrazol-5-yl)sulfonyl)-8-azaspiro[4.5]decan-2-yl)-2-oxa-6-azaspiro[3.3]heptane] |
| 0.1 to 0.25 | O=S(=O)(c1ccc(OC(F)F)cc1)N1CCC2(CC1)CC(N1CC3(CCCOC3)C1)CO2 (centres unmarked) [Example 143, 8-((4-(difluoromethoxy)phenyl)sulfonyl)-3-(6-oxa-2-azaspiro[3.5]nonan-2-yl)-1-oxa-8-azaspiro[4.5]decane] |
